From PubChem BioAssay AID1963958 (Molecular Pharmacology Branch, DTP, NCI, 2024)

System: MDA-MB-231 multicell spheroids, viability
Assay: Anticancer human tumor MDA-MB-231 cell line growth inhibition [PI3K];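 also: spheroids exposed to agents for seven days before reading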;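 as to viability, T/C: percent of vehicle control luminescence with DMSO treated spheroids as 100%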
Settings: for IC50: curve of first compound; for viability, T/C: stronger effect = lower value; active = viability on the fitted dose curve at most 10% of control; inactive = the rest
Procedure, shortened: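 Tumor cells grown as multi-cell spheroids with HUVEC endothelial cells and MSC fibroblast-like stroma were treated with targeted agents combined with inavolisib, alpelisib, duvelisib or copanlisib. Doses fell in half-log steps from near clinical Cmax, else from 10 microM. Viability was measured.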

[1] = second compound 0.00316 µM, first compound 0.0316 µM
[2] = second compound 0.00316 µM, first compound 0.1 µM
[3] = second compound 0.01 µM, first compound 0.0316 µM
[4] = second compound 0.01 µM, first compound 0.1 µM
[5] = second compound 0.0316 µM, first compound 0.0316 µM
[6] = second compound 0.0316 µM, first compound 0.1 µM
[7] = second compound 0.1 µM, first compound 0.0316 µM
[8] = second compound 0.1 µM, first compound 0.1 µM
[9] = second compound 0.316 µM, first compound 0.0316 µM
[10] = second compound 0.316 µM, first compound 0.1 µM
[11] = second compound 1 µM, first compound 0.0316 µM
[12] = second compound 1 µM, first compound 0.1 µM

CC(C)n1nc(-c2ccc3oc(N)nc3c2)c2c(N)ncnc21 + COc1c(OCCCN2CCOCC2)ccc2c3n(c(=NC(=O)c4cnc(N)nc4)nc12)CCN3
< 0.316 nM: IC50 (second compound 0.1 µM) | IC50 (second compound 0.316 µM) | IC50 (second compound 1 µM)
inactive: viability, T/C (second compound 0.00316 µM, first compound 0.000316 µM) 98.6% | viability, T/C (second compound 0.00316 µM, first compound 0.001 µM) 93.6% | viability, T/C (second compound 0.00316 µM, first compound 0.00316 µM) 83.9% | viability, T/C (second compound 0.00316 µM, first compound 0.01 µM) 76.1% | viability, T/C [1] 55.6% | viability, T/C [2] 36.9% | viability, T/C (second compound 0.01 µM, first compound 0.000316 µM) 78.3% | viability, T/C (second compound 0.01 µM, first compound 0.001 µM) 78.5% | viability, T/C (second compound 0.01 µM, first compound 0.00316 µM) 68.8% | viability, T/C (second compound 0.01 µM, first compound 0.01 µM) 58.3% | viability, T/C [3] 44.3% | viability, T/C [4] 29.1% | viability, T/C (second compound 0.0316 µM, first compound 0.000316 µM) 57.7% | viability, T/C (second compound 0.0316 µM, first compound 0.001 µM) 59.3% | viability, T/C (second compound 0.0316 µM, first compound 0.00316 µM) 54.4% | viability, T/C (second compound 0.0316 µM, first compound 0.01 µM) 44.2% | viability, T/C [5] 32.2% | viability, T/C [6] 21.4% | viability, T/C (second compound 0.1 µM, first compound 0.000316 µM) 47% | viability, T/C (second compound 0.1 µM, first compound 0.001 µM) 45.8% | viability, T/C (second compound 0.1 µM, first compound 0.00316 µM) 40.1% | viability, T/C (second compound 0.1 µM, first compound 0.01 µM) 34.7% | viability, T/C [7] 26.6% | viability, T/C [8] 19.8% | viability, T/C (second compound 0.316 µM, first compound 0.000316 µM) 34.2% | viability, T/C (second compound 0.316 µM, first compound 0.001 µM) 31.5% | viability, T/C (second compound 0.316 µM, first compound 0.00316 µM) 28.9% | viability, T/C (second compound 0.316 µM, first compound 0.01 µM) 25.4% | viability, T/C [9] 21.9% | viability, T/C [10] 18.5% | viability, T/C (second compound 1 µM, first compound 0.000316 µM) 26% | viability, T/C (second compound 1 µM, first compound 0.001 µM) 23.9% | viability, T/C (second compound 1 µM, first compound 0.00316 µM) 23.8% | viability, T/C (second compound 1 µM, first compound 0.01 µM) 23% | viability, T/C [11] 24.5% | viability, T/C [12] 22.5%
5.36 nM: IC50 (second compound 0.0316 µM)
19.5 nM: IC50 (second compound 0.01 µM)
46.8 nM: IC50 (second compound 0.00316 µM)

CC1(C)CCC(CN2CCN(c3ccc(C(=O)NS(=O)(=O)c4ccc(NCC5CCOCC5)c([N+](=O)[O-])c4)c(Oc4cnc5[nH]ccc5c4)c3)CC2)=C(c2ccc(Cl)cc2)C1 + COc1c(OCCCN2CCOCC2)ccc2c3n(c(=NC(=O)c4cnc(N)nc4)nc12)CCN3
> 10000 nM: IC50 (second compound 0.00316 µM) | IC50 (second compound 0.01 µM) | IC50 (second compound 0.0316 µM)
inactive: viability, T/C [1] 100% | viability, T/C [2] 96.4% | viability, T/C (second compound 0.00316 µM, first compound 0.316 µM) 96.8% | viability, T/C (second compound 0.00316 µM, first compound 1 µM) 104% | viability, T/C (second compound 0.00316 µM, first compound 3.16 µM) 102% | viability, T/C (second compound 0.00316 µM, first compound 10 µM) 104% | viability, T/C [3] 82.1% | viability, T/C [4] 80.1% | viability, T/C (second compound 0.01 µM, first compound 0.316 µM) 85% | viability, T/C (second compound 0.01 µM, first compound 1 µM) 91.1% | viability, T/C (second compound 0.01 µM, first compound 3.16 µM) 85.2% | viability, T/C (second compound 0.01 µM, first compound 10 µM) 83.9% | viability, T/C [5] 65.9% | viability, T/C [6] 66.4% | viability, T/C (second compound 0.0316 µM, first compound 0.316 µM) 65.2% | viability, T/C (second compound 0.0316 µM, first compound 1 µM) 65.7% | viability, T/C (second compound 0.0316 µM, first compound 3.16 µM) 67.4% | viability, T/C (second compound 0.0316 µM, first compound 10 µM) 66.5% | viability, T/C [7] 46.2% | viability, T/C [8] 45.6% | viability, T/C (second compound 0.1 µM, first compound 0.316 µM) 48.1% | viability, T/C (second compound 0.1 µM, first compound 1 µM) 47.7% | viability, T/C (second compound 0.1 µM, first compound 3.16 µM) 48.9% | viability, T/C (second compound 0.1 µM, first compound 10 µM) 44.9% | viability, T/C [9] 35.6% | viability, T/C [10] 34.8% | viability, T/C (second compound 0.316 µM, first compound 0.316 µM) 36.1% | viability, T/C (second compound 0.316 µM, first compound 1 µM) 35.3% | viability, T/C (second compound 0.316 µM, first compound 3.16 µM) 35.8% | viability, T/C (second compound 0.316 µM, first compound 10 µM) 33.6% | viability, T/C [11] 25.7% | viability, T/C [12] 26.2% | viability, T/C (second compound 1 µM, first compound 0.316 µM) 24.5% | viability, T/C (second compound 1 µM, first compound 1 µM) 23.9% | viability, T/C (second compound 1 µM, first compound 3.16 µM) 25.1% | viability, T/C (second compound 1 µM, first compound 10 µM) 22.2%
< 31.6 nM: IC50 (second compound 0.1 µM) | IC50 (second compound 0.316 µM) | IC50 (second compound 1 µM)
